Common to all, as to format: biochemical
One test deals with ERK2 (Homo sapiens, UniProt P28482). Nature of the test: ERK2 inhibition assay (spectrophotometric coupled-enzyme assay). The following applies: read-out: ERK2 Inhibitory Activity (Ki class D-F). Here is the method: The IC50 was evaluated from the rate data as a function of inhibitor concentration. […] The compound numbers correspond to the compound numbers in Table 1.
For another test, the target named is T1, GSK-3β (AA 1–420) (Homo sapiens, UniProt P49841).
T1 construct: GSK-3β (AA 1–420)
T1 sequence (P49841 whole entry, species assumed, the tested form may be a part): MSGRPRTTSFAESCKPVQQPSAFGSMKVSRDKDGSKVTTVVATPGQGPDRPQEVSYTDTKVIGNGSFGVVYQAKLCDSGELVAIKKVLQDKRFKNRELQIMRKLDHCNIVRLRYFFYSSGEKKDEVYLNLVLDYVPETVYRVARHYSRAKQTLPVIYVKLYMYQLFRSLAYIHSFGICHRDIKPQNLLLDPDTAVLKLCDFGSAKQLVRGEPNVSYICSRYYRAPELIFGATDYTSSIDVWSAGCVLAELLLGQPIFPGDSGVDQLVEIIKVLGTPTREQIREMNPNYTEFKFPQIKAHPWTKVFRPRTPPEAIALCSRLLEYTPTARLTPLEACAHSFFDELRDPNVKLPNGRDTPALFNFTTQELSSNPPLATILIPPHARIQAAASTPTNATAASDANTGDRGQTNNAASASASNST
Nature of the test: GSK-3 inhibition assay (coupled enzyme system). The conditions noted are these: read-out: GSK3 Inhibitory Activity (Ki class). Here is the method:
Final substrate concentrations in the assay were 20 μM ATP (Sigma Chemicals, St Louis, Mo.) and 300 μM peptide (HSSPHQS(PO3H2)EDEEE, American Peptide, Sunnyvale, Calif.). Reactions were carried out at 30° C. and 20 nM GSK-3β. Final concentrations of the components of the coupled enzyme system were 2.5 mM phosphoenolpyruvate, 300 μM NADH, 30 μg/ml pyruvate kinase and 10 μg/ml lactate dehydrogenase.
An assay stock buffer solution was prepared containing all of the reagents listed above with the exception of ATP and the test compound of interest. The assay stock buffer'solution (175 μl) was incubated in a 96 well plate with 5 μl of the test compound of interest at final concentrations spanning 0.002 μM to 30 μM at 30° C. for 10 min. […] The reaction was initiated by the addition of 20 μl of ATP (final concentration 20 μM). Rates of reaction were obtained using a Molecular Devices Spectramax plate reader (Sunnyvale, Calif.) over 10 min at 30° C. The Ki values were determined from the rate data as a function of inhibitor concentration.
The compound numbers correspond to the compound numbers in Table 1.

Another test has as its target CDK-2/Cyclin A (Homo sapiens, UniProt P24941). The test is described as follows: CDK-2 inhibition assay (coupled enzyme assay). As to the method:
To an assay stock buffer solution containing 0.1M HEPES 7.5, 10 mM MgCl2, 1 mM DTT, 25 mM NaCl, 2.5 mM phosphoenolpyruvate, […], […], […], […], and 100 μM peptide ([…], American Peptide, Sunnyvale, Calif.) was added a DMSO solution of a compound of the present invention to a final concentration of 30 μM.
The Ki values were determined from the rate data as a function of inhibitor concentration.

Each structure is given as a SMILES string. Some results are limits rather than exact numbers.

By Ki is commonly meant the dissociation constant of the complex between target and ligand, obtained from inhibition or displacement.

Sequence of ERK2 (P28482 whole entry, the tested form may be a part): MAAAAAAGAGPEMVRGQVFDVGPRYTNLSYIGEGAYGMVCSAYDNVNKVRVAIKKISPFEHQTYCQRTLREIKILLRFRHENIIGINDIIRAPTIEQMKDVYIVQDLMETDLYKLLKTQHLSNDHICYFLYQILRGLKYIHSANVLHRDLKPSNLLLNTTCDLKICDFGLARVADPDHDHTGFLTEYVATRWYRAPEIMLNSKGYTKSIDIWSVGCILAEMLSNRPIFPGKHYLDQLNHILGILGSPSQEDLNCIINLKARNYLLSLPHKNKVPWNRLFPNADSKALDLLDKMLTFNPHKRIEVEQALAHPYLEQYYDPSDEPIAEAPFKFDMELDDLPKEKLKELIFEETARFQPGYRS

As to `Cc1cnc(NC2CCC(O)CC2)nc1-c1c[nH]c(C(=O)NC(CO)c2ccccc2)c1` (stereo not drawn) [III-a-142, 4-[2-(4-Hydroxy-cyclohexylamino)-5-methyl-pyrimidin-4-yl]-1H-pyrrole-2-carboxylic acid (2-hydroxy-1-phenyl-ethyl)-amide], the inhibition constant Ki at ERK2, at GSK-3β (AA 1–420) and at CDK-2/Cyclin A was under 100 nM each time.
In the case of `Cc1cnc(Nc2ccccc2)nc1-c1c[nH]c(C(=O)NC(CO)c2cccc(C(F)(F)F)c2)c1` (stereo not drawn) [III-a-146, 4-(5-Methyl-2-phenylamino-pyrimidin-4-yl)-1H-pyrrole-2-carboxylic acid [2-hydroxy-1-(3-trifluoromethyl-phenyl)-ethyl]-amide], the Ki at GSK-3β (AA 1–420) and at CDK-2/Cyclin A was 100 to 1000 nM each time.
Turning to `Cc1cnc(Nc2cccc(F)c2)nc1-c1c[nH]c(C(=O)NC(CO)c2cccc(C(F)(F)F)c2)c1` (stereo not drawn) [III-a-148, 4-[2-(3-Fluoro-phenylamino)-5-methyl-pyrimidin-4-yl]-1H-pyrrole-2-carboxylic acid [2-hydroxy-1-(3-trifluoromethyl-phenyl)-ethyl]-amide], the Ki on ERK2 was under 100 nM; at GSK-3β (AA 1–420), under 100 nM; on CDK-2/Cyclin A, 100 to 1000 nM.
As to `Cc1cnc(Nc2cccc(C(F)(F)F)c2)nc1-c1c[nH]c(C(=O)NC(CO)c2ccccc2)c1` (stereo not drawn) [III-a-149, 4-[5-Methyl-2-(3-trifluoromethyl-phenylamino)-pyrimidin-4-yl]-1H-pyrrole-2-carboxylic acid (2-hydroxy-1-phenyl-ethyl)-amide], the inhibitory constant (Ki) at ERK2, at GSK-3β (AA 1–420) and on CDK-2/Cyclin A was under 100 nM throughout.
With `Cc1cnc(NCc2ccccc2)nc1-c1c[nH]c(C(=O)NC(CO)c2ccccc2)c1` (stereo not drawn) [III-a-150, 4-(2-Benzylamino-5-methyl-pyrimidin-4-yl)-1H-pyrrole-2-carboxylic acid (2-hydroxy-1-phenyl-ethyl)-amide], the Ki is under 100 nM on ERK2, 100 to 1000 nM at GSK-3β (AA 1–420) and 100 to 1000 nM at CDK-2/Cyclin A.
Take `Cc1cnc(Nc2ccc(OCc3ccccc3)cc2)nc1-c1c[nH]c(C(=O)NC(CO)c2ccccc2)c1` (stereo not drawn) [III-a-152, 4-[2-(4-Benzyloxy-phenylamino)-5-methyl-pyrimidin-4-yl]-1H-pyrrole-2-carboxylic acid (2-hydroxy-1-phenyl-ethyl)-amide]: the Ki on ERK2, at GSK-3β (AA 1–420) and at CDK-2/Cyclin A was under 100 nM each time.
On to `Cc1cnc(N[C@H](CO)c2ccccc2)nc1-c1c[nH]c(C(=O)N[C@H](CO)c2ccccc2)c1` [III-a-155, 4-[2-(2-Hydroxy-1-(S)-phenyl-ethylamino)-5-methyl-pyrimidin-4-yl]-1H-pyrrole-2-carboxylic acid (2-hydroxy-1-(S)-phenyl-ethyl)-amide], for which the figures for the Ki at ERK2, at GSK-3β (AA 1–420) and on CDK-2/Cyclin A were under 100 nM, 100 to 1000 nM and 100 to 1000 nM, respectively.
Take `COc1ccccc1Nc1ncc(C)c(-c2c[nH]c(C(=O)NC(CO)c3ccccc3)c2)n1` (stereo not drawn) [III-a-156, 4-[2-(2-Methoxy-phenylamino)-5-methyl-pyrimidin-4-yl]-1H-pyrrole-2-carboxylic acid (2-hydroxy-1-phenyl-ethyl)-amide]: the inhibition constant Ki on GSK-3β (AA 1–420) lay within 100 to 1000 nM; on CDK-2/Cyclin A, 1000 to 20000 nM.
As for `Cc1cnc(NCC2CC2)nc1-c1c[nH]c(C(=O)NC(CO)c2ccccc2)c1` (stereo not drawn) [III-a-159, 4-[2-(Cyclopropylmethyl-amino)-5-methyl-pyrimidin-4-yl]-1H-pyrrole-2-carboxylic acid (2-hydroxy-1-phenyl-ethyl)-amide], the inhibitory constant (Ki) on ERK2 was under 100 nM; on GSK-3β (AA 1–420) it was under 100 nM; at CDK-2/Cyclin A, 1000 to 20000 nM.
For `Cc1cnc(NC2CC2)nc1-c1c[nH]c(C(=O)N[C@H](CO)c2ccccc2)c1` [III-a-162, 4-(2-Cyclopropylamino-5-methyl-pyrimidin-4-yl)-1H-pyrrole-2-carboxylic acid (2-hydroxy-1-(S)-phenyl-ethyl)-amide], the results for the Ki at ERK2, at GSK-3β (AA 1–420) and at CDK-2/Cyclin A were under 100 nM, under 100 nM and 100 to 1000 nM, respectively.
On to `Cc1cnc(NC2(CO)CC2)nc1-c1c[nH]c(C(=O)NC(CO)c2ccccc2)c1` (stereo not drawn) [III-a-174, 4-[2-(1-Hydroxymethyl-cyclopropylamino)-5-methyl-pyrimidin-4-yl]-1H-pyrrole-2-carboxylic acid (2-hydroxy-1-phenyl-ethyl)-amide], for which the Ki at ERK2 is under 100 nM; on GSK-3β (AA 1–420), under 100 nM; at CDK-2/Cyclin A it was 100 to 1000 nM.
For `Cc1cnc(NOCCO)nc1-c1c[nH]c(C(=O)NC(CO)c2ccccc2)c1` (stereo not drawn) [III-a-225, 4-[2-(2-Hydroxy-ethoxyamino)-5-methyl-pyrimidin-4-yl]-1H-pyrrole-2-carboxylic acid (2-hydroxy-1-phenyl-ethyl)-amide], the inhibition constant Ki on ERK2 and on GSK-3β (AA 1–420) was under 100 nM throughout.
For `Cc1cnc(NC(CO)c2ccc(F)c(Cl)c2)nc1-c1c[nH]c(C(=O)NC(CO)c2ccccc2)c1` (stereo not drawn) [III-a-230, 4-{2-[1-(3-Chloro-4-fluoro-phenyl)-2-hydroxy-ethylamino]-5-methyl-pyrimidin-4-yl}-1H-pyrrole-2-carboxylic acid (2-hydroxy-1-phenyl-ethyl)-amide], the results for the inhibition constant (Ki) on ERK2 and on GSK-3β (AA 1–420) were under 100 nM and 100 to 1000 nM, respectively.
The like results for `CCC(CO)Nc1ncc(C)c(-c2c[nH]c(C(=O)NC(CO)c3cccc(Cl)c3)c2)n1` (stereo not drawn) [III-a-232, 4-[2-(1-Hydroxymethyl-propylamino)-5-methyl-pyrimidin-4-yl]-1H-pyrrole-2-carboxylic acid (1-(3-chloro-phenyl)-2-hydroxy-ethyl]-amide] were, in that order, under 100 nM and 100 to 1000 nM.
Consider `Cc1cnc(NC(CO)CO)nc1-c1c[nH]c(C(=O)NC(CO)c2cccc(Cl)c2)c1` (stereo not drawn) [III-a-233, 4-[2-(2-Hydroxy-1-hydroxymethyl-ethylamino)-5-methyl-pyrimidin-4-yl]-1H-pyrrole-2-carboxylic acid [1-(3-chloro-phenyl)-2-hydroxy-ethyl]-amide], for which the Ki at ERK2 is under 100 nM; at GSK-3β (AA 1–420), over 1000 nM.

Source of the values: patent publication US7253187B2, “Heterocyclic inhibitors of ERK2 and uses thereof” (Vertex Pharmaceuticals Incorporated, priority 2001, dated 2007).
